Several values for one entry are separate records, joined by “and”; a condition that tells them apart may be missing. Equal entries are not always repeated.
How the values were obtained:
[1] = test system: phospho-IκBα (Ser32); assay: NanoBiT cell-based immunoassay, phosphorylated IκBα in human primary mammary epithelial cells; conditions: for P-IkB Average: background subtracted; for P-IkB Raw data / P-IkB Subtract reagent background: listed as TNF
Protocol: (§1) All cell lines used are from ATCC. […] Human Primary Mammary Epithelial Cells (#H-6035), Human Breast Tumor Epithelial Cells (#HC-6035), Complete Human Epithelial Cell Medium (#H6621), and Gelatin-Based Coating Solution (#H6950) were purchased from Cell Biologics. The cells were cultured according to the manufacturer’s procedure. All cells were grown at 37 °C in a 5% CO2 humidified incubator and passaged before reaching 80% cell confluency. Prior to each experiment, cells were counted by combining 30 µl of cell suspension with 30 µl of trypan blue. After gentle pipetting up and down to mix the cells and the dye, the cell number was determined using Bio-Rad TC 20 cell counter.
(§2) Prior to NanoBiT Cell-Based Immunoassay, 50,000 cells were seeded in 160 µl of complete growth media per well of a 96-well plate and incubated overnight. The cells were checked under microscope and it was determined that 50,000 cells per well in 96-well plate is under 90% confluency for all cells tested. If necessary, the cell culture media were replaced with serum-free media after the cells were stably adherent on the plate and incubated overnight. To treat cells with activators or inhibitors, medium was changed to 30 µl of medium containing inhibitors. If activation of a specific pathway is needed, the cells were stimulated with 10 µl of medium containing activators. To lyse the cells, 10 µl of lysis buffer containing 0.1% digitonin diluted in 1X immunoassay buffer with protease and phosphatase inhibitors was added and the plates were mixed vigorously for 20 min. Then, 50 µl of an antibody mix containing two primary antibodies against the target protein and NanoBiT detecting antibodies (0.3 µl each per well), diluted in 1X immunoassay buffer was added to the lysates. The plates were incubated at 23 °C for 90 min, followed by the addition of 25 µl of Nano-Glo® reagent consisting of Nano-Glo® Luciferase Assay Substrate mixed with 1X immunoassay buffer. Luminescence was measured using a plate-reading luminometer.
(§3) Single dose or dose response inhibitor treatments were performed prior to activation of the pathways as follows. For IκBα, the cells were treated in 30 µl medium with IKK16 or MG132 for 60 min before the addition of 10 µl of DMEM containing appropriate concentration of TNFα. To measure phosphorylation of AKT or STAT3, the corresponding NanoBiT immunoassays were developed with MCF-7 or A431 cells, respectively, according the same scheme used to develop the IκBα assay using the primary antibodies for AKT and STAT3 described in the reagents section. For the AKT assay, MCF-7 cells were incubated overnight in phenol-red free DMEM medium (Gibco #21063-029) without serum. Treatment with LY294002 was performed in 30 µl medium and cells were incubated for 60 min before the addition of 1 µM Insulin. To measure STAT3 phosphorylation, A431 cells were incubated overnight in DMEM medium without serum. […] After addition of the stimulators, the cells were incubated for additional times as follows. IκBα phosphorylation and degradation analyses required both time courses and single time points as described in figures. […] The NanoBiT immunoassay protocol was followed as described above.
(§4) All 96-well assay plates were read using a GloMax® 96 Microplate Luminometer from Promega. The instrument was set to 0.5 s integration time. In order to obtain net change of signal, the reagent background values (signal from the well containing all reagent except primary antibodies) were subtracted from the sample values. To plot and analyze the data, Microsoft Excel and GraphPad Prism® Software were used. IC50 values were determined by using a nonlinear regression fit to a sigmoidal dose response (variable slope).

[2] = test system: phospho-IκBα (Ser32); assay: NanoBiT cell-based immunoassay, phosphorylated IκBα in human breast tumor epithelial cells; conditions: for P-IkB Average: background subtracted; for P-IkB Raw data / P-IkB Subtract reagent background: listed as TNF
Protocol: as §1, §2, §3, §4

[3] = test system: total IκBα; assay: NanoBiT cell-based immunoassay, total IκBα in human primary mammary epithelial cells; conditions: for Total IkB Average: background subtracted; for Total IkB Raw data / Total IkB Subtract reagent background: listed as TNF;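 for all read-outs here: TNFα at 50 ng per ml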
Protocol: as §1, §2, §3, §4

Substance: TNFα
- P-IkB Average ([1]; TNF 2 min): 5853
- P-IkB Raw data ([1]; TNF 2 min): 17220 and 16460 and 16920
- P-IkB Subtract reagent background ([1]; TNF 2 min): 6207 and 5447 and 5907
- P-IkB Average ([1]; TNF 4 min): 8003
- P-IkB Raw data ([1]; TNF 4 min): 18510 and 19530 and 19010
- P-IkB Subtract reagent background ([1]; TNF 4 min): 7497 and 8517
- P-IkB Average ([1]; TNF 6 min): 13540
- P-IkB Raw data ([1]; TNF 6 min): 23690 and 24890 and 25080
- P-IkB Subtract reagent background ([1]; TNF 6 min): 12677 and 13877
- P-IkB Average ([1]; TNF 8 min): 18690
- P-IkB Raw data ([1]; TNF 8 min): 28000 and 30000 and 31110
- P-IkB Subtract reagent background ([1]; TNF 8 min): 16987 and 18987
- P-IkB Average ([1]; TNF 10 min): 22970
- P-IkB Raw data ([1]; TNF 10 min): 33480 and 34070 and 34400
- P-IkB Subtract reagent background ([1]; TNF 10 min): 22467 and 23057
- P-IkB Average ([1]; TNF 12 min): 25163
- P-IkB Raw data ([1]; TNF 12 min): 35750 and 35400 and 37380
- P-IkB Subtract reagent background ([1]; TNF 12 min): 24737 and 24387
- P-IkB Average ([1]; TNF 15 min): 25267
- P-IkB Raw data ([1]; TNF 15 min): 35860 and 36040 and 36940
- P-IkB Subtract reagent background ([1]; TNF 15 min): 24847 and 25027 and 25927
- P-IkB Average ([1]; TNF 30 min): 18640
- P-IkB Raw data ([1]; TNF 30 min): 29280 and 29480 and 30200
- P-IkB Subtract reagent background ([1]; TNF 30 min): 18267 and 18467 and 19187
- P-IkB Average ([1]; TNF 45 min): 16850
- P-IkB Raw data ([1]; TNF 45 min): 28120 and 27980 and 27490
- P-IkB Subtract reagent background ([1]; TNF 45 min): 17107 and 16967 and 16477
- P-IkB Average ([1]; TNF 60 min): 19710
- P-IkB Raw data ([1]; TNF 60 min): 31240 and 30980 and 29950
- P-IkB Subtract reagent background ([1]; TNF 60 min): 20227 and 19967 and 18937
- P-IkB Average ([2]; TNF 2 min): 10421
- P-IkB Raw data ([2]; TNF 2 min): 19130 and 19610 and 19580
- P-IkB Subtract reagent background ([2]; TNF 2 min): 10591 and 10561 and 10111
- P-IkB Average ([2]; TNF 4 min): 13121
- P-IkB Raw data ([2]; TNF 4 min): 21660 and 22370 and 22390
- P-IkB Subtract reagent background ([2]; TNF 4 min): 13351 and 13371 and 12641
- P-IkB Average ([2]; TNF 6 min): 21828
- P-IkB Raw data ([2]; TNF 6 min): 29170 and 32480 and 30890
- P-IkB Subtract reagent background ([2]; TNF 6 min): 23461 and 21871 and 20151
- P-IkB Average ([2]; TNF 8 min): 28528
- P-IkB Raw data ([2]; TNF 8 min): 35450 and 39050 and 38140
- P-IkB Subtract reagent background ([2]; TNF 8 min): 30031 and 29121 and 26431
- P-IkB Average ([2]; TNF 10 min): 34158
- P-IkB Raw data ([2]; TNF 10 min): 41810 and 44090 and 43630
- P-IkB Subtract reagent background ([2]; TNF 10 min): 35071 and 34611 and 32791
- P-IkB Average ([2]; TNF 12 min): 36728
- P-IkB Raw data ([2]; TNF 12 min): 43840 and 47190 and 46210
- P-IkB Subtract reagent background ([2]; TNF 12 min): 38171 and 37191 and 34821
- P-IkB Average ([2]; TNF 15 min): 37461
- P-IkB Raw data ([2]; TNF 15 min): 43590 and 48210 and 47640
- P-IkB Subtract reagent background ([2]; TNF 15 min): 39191 and 38621 and 34571
- P-IkB Average ([2]; TNF 30 min): 32864
- P-IkB Raw data ([2]; TNF 30 min): 39720 and 43050 and 42880
- P-IkB Subtract reagent background ([2]; TNF 30 min): 34031 and 33861 and 30701
- P-IkB Average ([2]; TNF 45 min): 30164
- P-IkB Raw data ([2]; TNF 45 min): 36730 and 40420 and 40400
- P-IkB Subtract reagent background ([2]; TNF 45 min): 31401 and 31381 and 27711
- P-IkB Average ([2]; TNF 60 min): 35274
- P-IkB Raw data ([2]; TNF 60 min): 41100 and 46170 and 45610
- P-IkB Subtract reagent background ([2]; TNF 60 min): 37151 and 36591 and 32081
- Total IkB Average ([3]; TNF 2 min): 18292
- Total IkB Raw data ([3]; TNF 2 min): 29190 and 27950 and 27350
- Total IkB Subtract reagent background ([3]; TNF 2 min): 19319 and 18079 and 17479
- Total IkB Average ([3]; TNF 4 min): 16139
- Total IkB Raw data ([3]; TNF 4 min): 26330 and 26760 and 24940
- Total IkB Subtract reagent background ([3]; TNF 4 min): 16459 and 16889 and 15069
- Total IkB Average ([3]; TNF 6 min): 13185
- Total IkB Raw data ([3]; TNF 6 min): 23190 and 23370 and 22610
- Total IkB Subtract reagent background ([3]; TNF 6 min): 13319 and 13499 and 12739
- Total IkB Average ([3]; TNF 8 min): 9145
- Total IkB Raw data ([3]; TNF 8 min): 19430 and 18940 and 18680
- Total IkB Subtract reagent background ([3]; TNF 8 min): 9559 and 9069 and 8809
- Total IkB Average ([3]; TNF 10 min): 6539
- Total IkB Raw data ([3]; TNF 10 min): 16860 and 16350 and 16020
- Total IkB Subtract reagent background ([3]; TNF 10 min): 6989 and 6479 and 6149
- Total IkB Average ([3]; TNF 12 min): 4795
- Total IkB Raw data ([3]; TNF 12 min): 14910 and 14630 and 14460
- Total IkB Subtract reagent background ([3]; TNF 12 min): 5039 and 4759 and 4589
- Total IkB Average ([3]; TNF 15 min): 3099
- Total IkB Raw data ([3]; TNF 15 min): 13120 and 12980 and 12810
- Total IkB Subtract reagent background ([3]; TNF 15 min): 3249 and 3109 and 2939
- Total IkB Average ([3]; TNF 30 min): 3035
- Total IkB Raw data ([3]; TNF 30 min): 13030 and 12940 and 12750
- Total IkB Subtract reagent background ([3]; TNF 30 min): 3159 and 3069 and 2879
- Total IkB Average ([3]; TNF 45 min): 5225
- Total IkB Raw data ([3]; TNF 45 min): 15670 and 15120 and 14500
- Total IkB Subtract reagent background ([3]; TNF 45 min): 5799 and 5249 and 4629
- Total IkB Average ([3]; TNF 60 min): 7062
- Total IkB Raw data ([3]; TNF 60 min): 16790 and 17170 and 16840
- Total IkB Subtract reagent background ([3]; TNF 60 min): 6919 and 7299 and 6969

Reference: paper PMC6941952, “A homogeneous bioluminescent immunoassay to probe cellular signaling pathway regulation” (Communications Biology, 2020)
